Measurements taken from patent publication US11185593B2, “Alkylating agent for alkylating target with driver oncogene mutation” (Chiba Prefecture, priority 2013, dated 2021).

What was measured:
[1] = test system: mutant codon 12 KRAS gene and wild-type KRAS gene in LS180; assay: Colony PCR with allele specific primers, LS180; assay type: cell-based, human; settings: for MUT (number of mutant gene colonies) / WT (number of wild-type gene colonies): LS180, 50 nM, 48 hours, colony PCR, Table 3
Protocol: Using primers that specifically amplify the GAT mutant gene of KRAS codon 12 (KRAS-MUT-F and KRAS-MUT-R) and the wild-type genes thereof (KRAS-WT-F and KRAS-WT-R), PCR was carried out directly on the Escherichia coli cells in the above-described white colonies. Whether each colony was a mutant KRAS gene or a wild-type KRAS gene was determined, depending on by which primer set the band of interest was amplified.
KR12, which was considered to specifically alkylate the KRAS mutant codon 12 gene, was administered to a heterozygous colon cancer cell line LS180 having both a mutant codon 12 KRAS gene and a wild-type KRAS gene. Forty-eight hours later, RNA was extracted, and the KRAS gene was then quantitatively amplified. The amplified gene was cloned into a plasmid, using a TA cloning kit, and the obtained plasmid was then introduced into competent cells. Thereafter, by performing blue-white selection using an LB/amp/IPTG/X-Gal plate, white colonies having inserts were picked up, and then, the presence or absence of a colon 12 mutation in each colony was examined by direct sequencing or by a colony PCR method.

[2] = test system: colon cancer and pancreatic cancer cell lines; assay: Cytotoxicity test on various cancer cells, summary by KRAS codon 12 status; assay type: cell-based; settings: Homo sapiens
Protocol: Using colon cancer and pancreatic cancer cell lines, the cells were seeded in each well of a 96-well microplate, resulting in a cell density of 3000 to 5000 cells/well, and they were then cultured overnight. On the following day, the cells of each type were treated with KR12 recognizing a codon 12 mutation in concentrations of 1 nM, 10 nM, 30 nM, 100 nM, 300 nM, and 1 μM for 48 hours. Thereafter, a WST-8 reagent was added to each well, using cell counting kit-8, and the obtained mixture was then reacted for 2 hours. After that, the number of cells was counted at a wavelength of 450 nm according to a colorimetric analysis method using a microplate reader. The method of counting the number of cells comprises: 1) obtaining the mean value of the medium alone, 2) subtracting the mean value of the medium from each well, 3) obtaining the mean value of DMSO, 4) dividing the medium-subtracted value by the mean value of DMSO and then multiplying by 100, 5) obtaining the mean value of each treatment group and a standard deviation, and then preparing a graph. The calculation formula of IC50 is the following: IC50=10 (LOG (A/B)×(50−C)/(D−C)+LOG (B)), wherein A: a higher concentration of two concentrations sandwiching 50%, B: a lower concentration of two concentrations sandwiching 50%, C: inhibitory percentage at B, and D: inhibitory percentage at A. […]

SW480 (KRAS-MUThomo) = assay: Suppression of tumor growth in nude mice, SW480 transplanted; assay type: in vivo; settings: nude mice with SW480 cells; for cancer tumor-inhibitory effect / tumor growth suppression: comparison KR12, KR13, seco CBI, FIG. 15
Protocol: The below-mentioned 3 types of PBS solutions containing each type of cells were subcutaneously transplanted into the femurs of nude mice (i.e., HT29 into 7 mice, LS180 into 7 mice, and SW480 into 6 mice), and thereafter, at a time point in which a tumor adhered to the living body of each mouse and the tumor volume became approximately 100 mm^3, a drug was prepared with a composition of 3.4 mmol KR12 (1.36 mM KR12 dissolved in 2.5 μL of DMSO and 197.5 μL of PBS), or of a DMSO/PBS control (2.5 μL of DMSO and 197.5 μL of PBS). The prepared drug was subjected to sonication for 10 minutes, and 200 μL of the drug was administered to each mouse via the caudal vein thereof. The body weight and the tumor size were measured once three days, and the size of the tumor was measured by the method of 0.52×L×W×D(1/6×π×L×W×D).
SW480 (KRAS-MUThomo): (transplanted in an amount of 5×10^6 cells/100 μl PBS into the subcutis of each mouse; a cell line having a […] KRAS gene codon 12 mutation G12V)
Using, as controls, PIP-indole-seco-CBI (KR13) not recognizing a codon 12 mutation and 8.4 mmol seco CBI (3.36 mM CBI dissolved in 2.5 μL of DMSO and 197.5 μL of PBS), instead of the DMSO/PBS control, an experiment was carried out by the same method as that of the above section 11.

DLD-1 = assay: Cytotoxicity test, WST-8 (cell counting kit-8), 48 hours; assay type: cell-based; settings: Homo sapiens, DLD-1, KRAS G13D Hetero, read-out: KR12 IC50
Protocol: (§1) Using colon cancer and pancreatic cancer cell lines, the cells were seeded in each well of a 96-well microplate, resulting in a cell density of 3000 to 5000 cells/well, and they were then cultured overnight. On the following day, the cells of each type were treated with KR12 recognizing a codon 12 mutation in concentrations of 1 nM, 10 nM, 30 nM, 100 nM, 300 nM, and 1 μM for 48 hours. Thereafter, a WST-8 reagent was added to each well, using cell counting kit-8, and the obtained mixture was then reacted for 2 hours. After that, the number of cells was counted at a wavelength of 450 nm according to a colorimetric analysis method using a microplate reader. The method of counting the number of cells comprises: 1) obtaining the mean value of the medium alone, 2) subtracting the mean value of the medium from each well, 3) obtaining the mean value of DMSO, 4) dividing the medium-subtracted value by the mean value of DMSO and then multiplying by 100, 5) obtaining the mean value of each treatment group and a standard deviation, and then preparing a graph. The calculation formula of IC50 is the following: IC50=10 (LOG (A/B)×(50−C)/(D−C)+LOG (B)), wherein A: a higher concentration of two concentrations sandwiching 50%, B: a lower concentration of two concentrations sandwiching 50%, C: inhibitory percentage at B, and D: inhibitory percentage at A.
(§2) The cells used in the aforementioned experiment are human cancer cell lines SW480, SW620, SNU-C2B, LS180, SW1463, DLD-1, HT29, and Caco-2 (purchased from European Collection of Cell Cultures (ECACC)).

SW480 = assay: as above; assay type: cell-based; settings: SW480, KRAS G12V Homo, read-out: KR12 IC50
Protocol: as §1, §2

SW620 = assay: as above; assay type: cell-based; settings: SW-620, SW620, KRAS G12V Homo, read-out: KR12 IC50
Protocol: as §1, §2

HT-29 = assay: as above; assay type: cell-based; settings: Homo sapiens, HT-29, KRAS wild type, read-out: KR12 IC50
Protocol: as §1, §2

SNU-C2B = assay: as above; assay type: cell-based; settings: Homo sapiens, KRAS G12D Hetero, read-out: KR12 IC50
Protocol: as §1, §2

SW1463 = assay: as above; assay type: cell-based; settings: SW1463, KRAS G12C Homo, read-out: KR12 IC50
Protocol: as §1, §2

Caco-2 = assay: as above; assay type: cell-based; settings: Homo sapiens, Caco-2, KRAS wild type, read-out: KR12 IC50
Protocol: as §1, §2

[3] = test system: active-type KRAS proteins (p21-ras proteins); assay: Measurement of RAS activity (RAS activation assay kit); assay type: cell-based, human; settings: LS180, 50 nM, 48 hours, FIG. 12A
Protocol: Cells (the number of cells: 2×10^6 cells/100 mm plate or 1×10^6 cells/100 mm plate) were cultured in a complete nutrient medium, and on the following day, the cultured cells were treated with 50 nM KR12 or KR13, followed by culture for 48 hours. Thereafter, the resulting cells were dissolved in a magnesium lysis buffer (MLB), and a RAS activity level was then measured using a RAS activation assay kit (Millipore, MA).

LS180 = assay: Cell growth of KR12-treated LS180 cells (FIG. 12B); assay type: cell-based, human; settings: LS180, FIG. 12B

Row | SMILES | MUT (number of mutant gene colonies) [1] | WT (number of wild-type gene colonies) [1] | expression levels of mutant cancer genes ([1]; LS180, colony PCR) | IC50 ([2]; SW1463, DLD-1, HT-29 and Caco-2, cell lines which do not have a codon 12 mutation recognized by KR12) | IC50 ([2]; cell lines having a codon 12 mutation, which is recognized by KR12) | tumor size (SW480 (KRAS-MUThomo); 3.4 mmol KR12 via the caudal vein, FIG. 14C) | size of the tumor (SW480 (KRAS-MUThomo); 2 months after the administration) | state of the tumor (SW480 (KRAS-MUThomo); 3 months after the administration) | cancer tumor-inhibitory effect / tumor growth suppression (SW480 (KRAS-MUThomo)) | IC50 (DLD-1) | IC50 (SW480) | IC50 (SW620) | IC50 (HT-29) | IC50 (SNU-C2B) | IC50 (SW1463) | IC50 (Caco-2) | activity of the detected KRAS protein (RAS activity level) [3] | cell growth (LS180)
1 | CC(=O)Nc1cn(C)c(C(=O)Nc2cc(C(=O)NCCC(=O)Nc3cn(C)c(C(=O)Nc4cn(C)c(C(=O)Nc5cc(C(=O)Nc6cn(C)c(C(=O)NCCCC(=O)Nc7cc(C(=O)Nc8cn(C)c(C(=O)NCCC(=O)Nc9cc(C(=O)Nc%10cc(C(=O)Nc%11ccc%12[nH]c(C(=O)N%13CC(CCl)c%14c%13cc(O)c%13ccccc%14%13)cc%12c%11)n(C)c%10)n(C)c9)n8)n(C)c7)n6)n(C)c5)n4)n3)n(C)c2)n1 (stereo not drawn) [KR12] | 11 | 27 | the expression levels of mutant cancer genes were decreased | ≥ 0.1 µM | ≤ 0.1 µM | significantly reduced | significantly reduced | an extremely small and hard induration | significantly higher than in the case of administration of KR13 | 0.153 µM | 0.031 µM | 0.017 µM | 0.102 µM | 0.057 µM | 0.178 µM | 0.105 µM | decreased | suppressed
2 | CC(=O)Nc1cn(C)c(C(=O)Nc2cn(C)c(C(=O)Nc3cc(C(=O)Nc4cn(C)c(C(=O)NCCC(=O)Nc5cc(C(=O)Nc6cn(C)c(C(=O)NCCCC(=O)Nc7cc(C(=O)Nc8cn(C)c(C(=O)Nc9cc(C(=O)NCCC(=O)Nc%10cc(C(=O)Nc%11ccc%12[nH]c(C(=O)N%13CC(CCl)c%14c%13cc(O)c%13ccccc%14%13)cc%12c%11)n(C)c%10)n(C)c9)n8)n(C)c7)n6)n(C)c5)n4)n(C)c3)n2)n1 (stereo not drawn) [KR13] | 13 | 14 |  |  |  |  |  |  | impossible |  |  |  |  |  |  |  |  | 
